ChEMBL document CHEMBL3797052 (Eur J Med Chem, 2016)

tested on: T47D; test: Antiproliferative activity against human T47D cells assessed as cell growth at 10^-8 M after 48 hrs by sulforhodamine B assay; format: functional; settings: read-out: Activity

Row | SMILES | growth at 0.01 µM
1 | CNC(=O)c1cc(Oc2ccc3nc(NC(=O)Nc4ccc(Cl)c(C(F)(F)F)c4)sc3c2)ccn1 | 90%

tested on: CCRF-CEM; test: Antiproliferative activity against human CCRF-CEM cells assessed as cell growth at 10^-7 M after 48 hrs by sulforhodamine B assay; format: functional; settings: read-out: Activity

Row | SMILES | growth at 0.1 µM
2 | CNC(=O)c1cc(Oc2ccc3nc(NC(=O)Nc4ccc(Cl)c(C(F)(F)F)c4)sc3c2)ccn1 | 99%

tested on: SR; test: Antiproliferative activity against human SR cells assessed as cell growth at 10^-7 M after 48 hrs by sulforhodamine B assay; format: functional; settings: read-out: Activity

Row | SMILES | growth at 0.1 µM
3 | CNC(=O)c1cc(Oc2ccc3nc(NC(=O)Nc4ccc(Cl)c(C(F)(F)F)c4)sc3c2)ccn1 | 105%

tested on: NCI-H522; test: Antiproliferative activity against human NCI-H522 cells assessed as cell growth at 10^-7 M after 48 hrs by sulforhodamine B assay; format: functional; settings: NCI-H522, 48 h, read-out: Activity

Row | SMILES | growth at 0.1 µM
4 | CNC(=O)c1cc(Oc2ccc3nc(NC(=O)Nc4ccc(Cl)c(C(F)(F)F)c4)sc3c2)ccn1 | 95%

tested on: not listed separately; test: Antiproliferative activity against human COLO205 cells assessed as cell growth at 10^-7 M after 48 hrs by sulforhodamine B assay; format: functional; settings: COLO 205, 48 h, read-out: Activity

Row | SMILES | growth at 0.1 µM
5 | CNC(=O)c1cc(Oc2ccc3nc(NC(=O)Nc4ccc(Cl)c(C(F)(F)F)c4)sc3c2)ccn1 | 106%

tested on: not listed separately; test: Antiproliferative activity against human HCT116 cells assessed as cell growth at 10^-7 M after 48 hrs by sulforhodamine B assay; format: functional; settings: HCT-116, 48 h, read-out: Activity

Row | SMILES | growth at 0.1 µM
6 | CNC(=O)c1cc(Oc2ccc3nc(NC(=O)Nc4ccc(Cl)c(C(F)(F)F)c4)sc3c2)ccn1 | 99%

tested on: not listed separately; test: Antiproliferative activity against human SF268 cells assessed as cell growth at 10^-7 M after 48 hrs by sulforhodamine B assay; format: functional; settings: SF-268, 48 h, read-out: Activity

Row | SMILES | growth at 0.1 µM
7 | CNC(=O)c1cc(Oc2ccc3nc(NC(=O)Nc4ccc(Cl)c(C(F)(F)F)c4)sc3c2)ccn1 | 101%

tested on: not listed separately; test: Antiproliferative activity against human SNB19 cells assessed as cell growth at 10^-7 M after 48 hrs by sulforhodamine B assay; format: functional; settings: SNB-19, 48 h, read-out: Activity

Row | SMILES | growth at 0.1 µM
8 | CNC(=O)c1cc(Oc2ccc3nc(NC(=O)Nc4ccc(Cl)c(C(F)(F)F)c4)sc3c2)ccn1 | 100%

tested on: SK-MEL-2; test: Antiproliferative activity against human SK-MEL-2 cells assessed as growth inhibition after 48 hrs by sulforhodamine B assay; format: functional; settings: SK-MEL-2, 48 h

Row | SMILES | GI50 | TGI
9 | CNC(=O)c1cc(Oc2ccc3nc(NC(=O)Nc4ccc(Cl)c(C(F)(F)F)c4)sc3c2)ccn1 | 5.69 µM | 47 µM

same assay, conditions: SK-MEL-2, 48 h, read-out: LC50 (the source's name)

Row | SMILES | CC50
10 | CNC(=O)c1cc(Oc2ccc3nc(NC(=O)Nc4ccc(Cl)c(C(F)(F)F)c4)sc3c2)ccn1 | > 100 µM

tested on: not listed separately; test: Antiproliferative activity against human LOXIMVI cells assessed as growth inhibition after 48 hrs by sulforhodamine B assay; format: functional; settings: LOX IMVI

Row | SMILES | GI50 | TGI
11 | CNC(=O)c1cc(Oc2ccc3nc(NC(=O)Nc4ccc(Cl)c(C(F)(F)F)c4)sc3c2)ccn1 | 2.68 µM | > 100 µM

same assay, conditions: LOX IMVI, read-out: LC50 (the source's name)

Row | SMILES | CC50
12 | CNC(=O)c1cc(Oc2ccc3nc(NC(=O)Nc4ccc(Cl)c(C(F)(F)F)c4)sc3c2)ccn1 | > 100 µM

tested on: not listed separately; test: Antiproliferative activity against human UO31 cells assessed as cell growth at 10^-7 M after 48 hrs by sulforhodamine B assay; format: functional; settings: UO-31, 48 h, read-out: Activity

Row | SMILES | growth at 0.1 µM
13 | CNC(=O)c1cc(Oc2ccc3nc(NC(=O)Nc4ccc(Cl)c(C(F)(F)F)c4)sc3c2)ccn1 | 107%

tested on: MDA-MB-231; test: Antiproliferative activity against human MDA-MB-231 cells assessed as cell growth at 10^-7 M after 48 hrs by sulforhodamine B assay; format: functional; settings: MDA-MB-231, 48 h, read-out: Activity

Row | SMILES | growth at 0.1 µM
14 | CNC(=O)c1cc(Oc2ccc3nc(NC(=O)Nc4ccc(Cl)c(C(F)(F)F)c4)sc3c2)ccn1 | 109%

tested on: not listed separately; test: Antiproliferative activity against human SF268 cells assessed as growth inhibition after 48 hrs by sulforhodamine B assay; format: functional; settings: SF-268, 48 h

Row | SMILES | GI50 | LC50 (concentration killing 50% of cells) | TGI
15 | CNC(=O)c1cc(Oc2ccc3nc(NC(=O)Nc4ccc(Cl)c(C(F)(F)F)c4)sc3c2)ccn1 | 2.34 µM | > 100 µM | 16.4 µM

tested on: EKVX; test: Antiproliferative activity against human EKVX cells assessed as growth inhibition after 48 hrs by sulforhodamine B assay; format: functional; settings: not given

Row | SMILES | GI50 | TGI
16 | CNC(=O)c1cc(Oc2ccc3nc(NC(=O)Nc4ccc(Cl)c(C(F)(F)F)c4)sc3c2)ccn1 | 1.75 µM | 4.18 µM

tested on: T47D; test: Antiproliferative activity against human T47D cells assessed as growth inhibition after 48 hrs by sulforhodamine B assay; format: functional; settings: not given

Row | SMILES | GI50 | TGI
17 | CNC(=O)c1cc(Oc2ccc3nc(NC(=O)Nc4ccc(Cl)c(C(F)(F)F)c4)sc3c2)ccn1 | 0.723 µM | 3.65 µM
